Data: ChEMBL document CHEMBL4673320, “Structure Elucidation of the spiro-Polyketide Svalbardine B from the Arctic Fungal Endophyte Poaceicola sp. E1PB with Support from Extensive ESI-MS Interpretation” (J Nat Prod, 2020)
Activity calls are given as the source filed them.

Columns and labels:
[1] = system: Shigella flexneri; test: Antibacterial activity against Shigella flexneri ATCC 12020 assessed as reduction in microbial growth at 20 uM after 18 hrs by resazurin based assay; format: functional, organism-based
[2] = system: Yersinia enterocolitica; test: Antibacterial activity against Yersinia enterocolitica ATCC 23715 assessed as reduction in microbial growth at 20 uM after 18 hrs by resazurin based assay; format: functional, organism-based
[3] = system: Salmonella typhimurium; test: Antibacterial activity against Salmonella typhimurium ATCC 14028 assessed as reduction in microbial growth at 20 uM after 18 hrs by resazurin based assay; format: functional, organism-based; details: Salmonella enterica subsp. enterica serovar Typhimurium, DT104 ATCC 14028
[4] = system: Pseudomonas aeruginosa; test: Antibacterial activity against Pseudomonas aeruginosa ATCC 10145 assessed as reduction in microbial growth at 20 uM after 18 hrs by resazurin based assay; format: functional, organism-based
[5] = system: Staphylococcus aureus; test: Antibacterial activity against Staphylococcus aureus ATCC 25923 assessed as reduction in microbial growth at 20 uM after 18 hrs by resazurin based assay; format: functional, organism-based
[6] = system: Serratia marcescens; test: Antibacterial activity against Serratia marcescens ATCC 14756 assessed as reduction in microbial growth at 20 uM after 18 hrs by resazurin based assay; format: functional, organism-based
[7] = system: SH-SY5Y; test: Cytotoxicity against human SH-SY5Y cells assessed as reduction in cell viability at 20 uM after 24 hrs by MTT assay; format: functional, cell-based
[8] = system: Staphylococcus haemolyticus; test: Antibacterial activity against Staphylococcus haemolyticus ATCC 29970 assessed as reduction in microbial growth at 20 uM after 18 hrs by resazurin based assay; format: functional, organism-based
[9] = system: Escherichia coli; test: Antibacterial activity against Escherichia coli ATCC 25922 assessed as reduction in microbial growth at 20 uM after 18 hrs by resazurin based assay; format: functional, organism-based
[10] = system: Staphylococcus ureilyticus; test: Antibacterial activity against Staphylococcus cohnii subsp. urealyticum assessed as reduction in microbial growth after at 20 uM 18 hrs by resazurin based assay; format: functional
[11] = system: Enterobacter cloacae; test: Antibacterial activity against Enterobacter cloacae ATCC 35030 assessed as reduction in microbial growth at 20 uM after 18 hrs by resazurin based assay; format: functional, organism-based

Measured: Activity

COC(=O)c1cc(OC)cc(O)c1C(=O)C1CC2(CCc3cc(OC)cc(C(=O)OC)c3C2=O)C(=O)C2=C(C)OC(C)=CC21 (stereo unspecified)
inactive: [1] | [2] | [3] | [4] | [5] | [6] | [7] | [8] | [9] | [10] | [11]

COC(=O)c1cc(OC)cc2c1-c1oc(C)cc(=O)c1CO2
inactive: [1] | [2] | [3] | [4] | [5] | [6] | [7] | [8] | [9] | [10] | [11]

COc1cc(=O)oc(C[C@H](C)O)c1C
inactive: [1] | [2] | [3] | [4] | [5] | [6] | [7] | [8] | [9] | [10] | [11]

CCCc1oc(=O)cc(OC)c1C
inactive: [1] | [2] | [3] | [4] | [5] | [6] | [7] | [8] | [9] | [10] | [11]

C=C1OC(=O)c2c(O)cc(OC)c(C)c2[C@H]1C
inactive: [1] | [2] | [3] | [4] | [5] | [6] | [7] | [8] | [9] | [10] | [11]

COc1cc(O)c2c(c1C)[C@@H](C)[C@@](O)(CO)OC2=O
inactive: [1] | [2] | [3] | [4] | [5] | [6] | [7] | [8] | [9] | [10] | [11]
